Results from patent US20230183193A1, “4-DIFLUOROMETHYL BENZOYL AMIDES WITH HERBICIDAL ACTION” (BAYER CROPSCIENCE AKTIENGESELLSCHAFT, priority 2017, published 2023).

What was measured:
Abutilon theophrasti [1] = test: Pre-emergence herbicidal action, ABUTH; type: in vivo; settings: for Herbicidal efficacy against ABUTH: Table K; for herbicidal activity ABUTH: scored visually after 3 weeks vs untreated controls
In short: (§1)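 Percent herbicidal activity rated by eye 3 weeks after pre-emergence soil-surface application, compared with untreated pots. Seeds sat under sandy loam; sprays carried 0.2% wetting agent.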

Alopecurus myosuroides [2] = test: Pre-emergence herbicidal action, ALOMY; type: in vivo; settings: for herbicidal activity ALOMY: scored visually after 3 weeks vs untreated controls
In short: as §1

Amaranthus retroflexus [3] = test: Pre-emergence herbicidal action, AMARE; type: in vivo; settings: dosage 320 g/ha, scored visually after 3 weeks vs untreated controls
In short: as §1

Avena fatua [4] = test: Pre-emergence herbicidal action, AVEFA; type: in vivo; settings: for herbicidal activity AVEFA: scored visually after 3 weeks vs untreated controls
In short: as §1

Cyperus serotinus [5] = test: Pre-emergence herbicidal action, CYPES; type: in vivo; settings: for herbicidal activity CYPES: scored visually after 3 weeks vs untreated controls
In short: as §1

Matricaria inodora [6] = test: Pre-emergence herbicidal action, MATIN; type: in vivo; settings: for Herbicidal efficacy against MATIN: Table K; for herbicidal activity MATIN: scored visually after 3 weeks vs untreated controls
In short: as §1

Polygonum convolvulus = test: Pre-emergence herbicidal action, POLCO; type: in vivo
In short: as §1

Setaria viridis [7] = test: Pre-emergence herbicidal action, SETVI; type: in vivo; settings: for herbicidal activity SETVI: scored visually after 3 weeks vs untreated controls
In short: as §1

Stellaria media [8] = test: Pre-emergence herbicidal action, STEME; type: in vivo; settings: dosage 320 g/ha, scored visually after 3 weeks vs untreated controls
In short: as §1

Viola tricolor [9] = test: Pre-emergence herbicidal action, VIOTR; type: in vivo; settings: for herbicidal activity VIOTR: scored visually after 3 weeks vs untreated controls
In short: as §1

Abutilon theophrasti [10] = test: Post-emergence herbicidal action, ABUTH; type: in vivo; settings: 80 g/ha, Table D
In short: (§2)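 Herbicidal effect is rated visually as percent versus untreated plants (100% = dead, 0% = like control) about 3 weeks after spraying. Plants were sown in sandy loam in the greenhouse and sprayed on green parts at the one-leaf stage, 2 to 3 weeks post-sowing.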

Alopecurus myosuroides [11] = test: Post-emergence herbicidal action, ALOMY; type: in vivo; settings: for herbicidal activity ALOMY: 80 g/ha, Table C
In short: as §2

Amaranthus retroflexus [12] = test: Post-emergence herbicidal action, AMARE; type: in vivo; settings: 80 g/ha, Table D
In short: as §2

Avena fatua [13] = test: Post-emergence herbicidal action, AVEFA; type: in vivo; settings: for herbicidal activity AVEFA: 80 g/ha, Table C
In short: as §2

Cyperus serotinus [14] = test: Post-emergence herbicidal action, CYPES; type: in vivo; settings: 5 g/ha
Method: Seeds of monocotyledonous and dicotyledonous weed and crop plants are laid out in sandy loam soil in wood-fiber pots, covered with soil and cultivated in a greenhouse under good growth conditions. 2 to 3 weeks after sowing, the test plants are treated at the one-leaf stage. The compounds of the invention, formulated in the form of wettable powders (WP) or as emulsion concentrates (EC), are then sprayed onto the green parts of the plants in the form of an aqueous suspension or emulsion at a water application rate equating to […], with addition of 0.2% wetting agent. After the test plants have been left to stand in the greenhouse under optimal growth conditions for about 3 weeks, the action of the preparations is assessed visually in comparison to untreated controls (herbicidal action in percent (%): 100% activity=the plants have died, 0% activity=like control plants). […] At the same time, inventive compounds leave Gramineae crops such as barley, wheat, rye, millet/sorghum, corn or rice virtually undamaged when applied post-emergence, even at high active compound dosages. In addition, some substances are also harmless to dicotyledonous crops such as soya, cotton, oilseed rape, sugar beet or potatoes. […]

Pharbitis purpureum = test: Post-emergence herbicidal action, PHBPU; type: in vivo; settings: 80 g/ha, Table D
In short: as §2

Setaria viridis [15] = test: Post-emergence herbicidal action, SETVI; type: in vivo; settings: for herbicidal activity SETVI: 80 g/ha, Table C
In short: as §2

Stellaria media [16] = test: Post-emergence herbicidal action, STEME; type: in vivo; settings: for Herbicidal activity STEME: 80 g/ha, Table D
In short: as §2

Viola tricolor [17] = test: Post-emergence herbicidal action, VIOTR; type: in vivo; settings: for herbicidal activity VIOTR: 80 g/ha, Table D
In short: as §2

ECHCG [18] = test: Post-emergence herbicidal action, ECHCG; type: in vivo; settings: 80 g/ha, Table C
In short: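 Weed and crop plants grown in sandy loam in the greenhouse, treated at the one-leaf stage 2–3 weeks after sowing. Damage scored visually after about 3 weeks vs untreated controls (0% = control, 100% = dead).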

ECHCG [19] = test: Pre-emergence herbicidal action, ECHCG; type: in vivo, Echinochloa crus-galli
Matricaria inodora [20] = test: Post-emergence herbicidal action, MATIN; type: in vivo; settings: Table M
Method: (§3) Seeds of monocotyledonous and dicotyledonous weed and crop plants are laid out in sandy loam soil in wood-fiber pots, covered with soil and cultivated in a greenhouse under good growth conditions. 2 to 3 weeks after sowing, the test plants are treated at the one-leaf stage. The compounds of the invention, formulated in the form of wettable powders (WP) or as emulsion concentrates (EC), are then sprayed onto the green parts of the plants in the form of an aqueous suspension or emulsion at a water application rate equating to […], with addition of 0.2% wetting agent. After the test plants have been left to stand in the greenhouse under optimal growth conditions for about 3 weeks, the action of the preparations is assessed visually in comparison to untreated controls (herbicidal action in percent (%): 100% activity=the plants have died, 0% activity=like control plants). […] At the same time, inventive compounds leave Gramineae crops such as barley, wheat, rye, millet/sorghum, corn or rice virtually undamaged when applied post-emergence, even at high active compound dosages. In addition, some substances are also harmless to dicotyledonous crops such as soya, cotton, oilseed rape, sugar beet or potatoes. Some of the compounds according to the invention have high selectivity and are therefore suitable for controlling unwanted vegetation in agricultural crops by the post-emergence method. The data of Tables C and D below illustrate, in an exemplary manner, the […] herbicidal action of the compounds according to the invention, the herbicidal activity being stated in percent.
(§4) For comparison, the herbicidal activity of numerous compounds according to the invention was tested with the structurally closest compounds known from the documents WO 2011/035874, WO 2012/028579 and WO 2012/126932, by the pre- and post-emergence method.

Veronica persica = test: Post-emergence herbicidal action, VERPE; type: in vivo; settings: Table M
Method: as §3, §4

LOLMU = test: Pre-emergence herbicidal action, LOLMU; type: in vivo; settings: Table L

Cc1c(C(=O)Nc2nnnn2C)ccc(C(F)F)c1[S+](C)[O-] (stereo not shown) [Example 1-2]
90: Herbicidal efficacy against ALOMY (Alopecurus myosuroides [2]; 80 g/ha) | Herbicidal efficacy against CYPES (Cyperus serotinus [5]; 320 g/ha) | Herbicidal efficacy against SETVI (Setaria viridis [7]; 80 g/ha) | Herbicidal efficacy against AVEFA (Avena fatua [13]; 20 g/ha) | Herbicidal efficacy against SETVI (Setaria viridis [15]; 5 g/ha) | Herbicidal efficacy against SETVI (Setaria viridis [15]; 20 g/ha) | Herbicidal efficacy against STEME (Stellaria media [16]; 5 g/ha) | Herbicidal efficacy against STEME (Stellaria media [16]; 20 g/ha)
20: Herbicidal efficacy against AVEFA (Avena fatua [4]; 20 g/ha)
80%: herbicidal activity ABUTH (Abutilon theophrasti [10]) | herbicidal activity AMARE (Amaranthus retroflexus [12])
70: Herbicidal efficacy against ALOMY (Alopecurus myosuroides [2]; 20 g/ha) | Herbicidal efficacy against AVEFA (Avena fatua [4]; 80 g/ha) | Herbicidal efficacy against MATIN (Matricaria inodora [6]; dosage 20 g/ha) | Herbicidal efficacy against POLCO (Polygonum convolvulus; dosage 80 g/ha, Table K) | Herbicidal efficacy against AVEFA (Avena fatua [13]; 5 g/ha)
100: Herbicidal efficacy against ABUTH (Abutilon theophrasti [1]; dosage 80 g/ha) | Herbicidal efficacy against ABUTH (Abutilon theophrasti [1]; dosage 320 g/ha) | Herbicidal efficacy against ALOMY (Alopecurus myosuroides [2]; 320 g/ha) | Herbicidal efficacy against AVEFA (Avena fatua [4]; 320 g/ha) | Herbicidal efficacy against MATIN (Matricaria inodora [6]; dosage 80 g/ha) | Herbicidal efficacy against MATIN (Matricaria inodora [6]; dosage 320 g/ha) | Herbicidal efficacy against SETVI (Setaria viridis [7]; 320 g/ha) | Herbicidal efficacy against VIOTR (Viola tricolor [9]; dosage 80 g/ha, Table K) | Herbicidal efficacy against VIOTR (Viola tricolor [9]; dosage 320 g/ha, Table K) | Herbicidal efficacy against VIOTR (Viola tricolor [17]; 5 g/ha) | Herbicidal efficacy against VIOTR (Viola tricolor [17]; 20 g/ha) | Herbicidal efficacy against ECHCG (ECHCG [19]; 80 g/ha) | Herbicidal efficacy against ECHCG (ECHCG [19]; 320 g/ha)
40: Herbicidal efficacy against ECHCG (ECHCG [19]; 20 g/ha)
100%: herbicidal activity ABUTH (Abutilon theophrasti [1]; dosage 320 g/ha) | herbicidal activity ALOMY (Alopecurus myosuroides [2]; dosage 320 g/ha) | herbicidal activity AMARE (Amaranthus retroflexus [3]) | herbicidal activity AVEFA (Avena fatua [4]; dosage 320 g/ha) | herbicidal activity MATIN (Matricaria inodora [6]; dosage 320 g/ha) | herbicidal activity SETVI (Setaria viridis [7]; dosage 320 g/ha) | herbicidal activity VIOTR (Viola tricolor [9]; dosage 320 g/ha) | herbicidal activity AVEFA (Avena fatua [13]) | Herbicidal activity STEME (Stellaria media [16]) | herbicidal activity VIOTR (Viola tricolor [17])
80: Herbicidal efficacy against CYPES (Cyperus serotinus [5]; 80 g/ha) | Herbicidal efficacy against POLCO (Polygonum convolvulus; dosage 320 g/ha, Table K) | Herbicidal efficacy against VIOTR (Viola tricolor [9]; dosage 20 g/ha, Table K) | Herbicidal efficacy against ALOMY (Alopecurus myosuroides [11]; 20 g/ha)
60: Herbicidal efficacy against CYPES (Cyperus serotinus [5]; 20 g/ha) | Herbicidal efficacy against ALOMY (Alopecurus myosuroides [11]; 5 g/ha)
50: Herbicidal efficacy against CYPES (Cyperus serotinus [14])
90%: herbicidal activity CYPES (Cyperus serotinus [5]; dosage 320 g/ha) | Herbicidal activity STEME (Stellaria media [8]) | herbicidal activity ALOMY (Alopecurus myosuroides [11]) | Herbicidal activity PHBPU (Pharbitis purpureum) | herbicidal activity SETVI (Setaria viridis [15]) | Herbicidal activity ECHCG (ECHCG [18])

Cc1nnc(NC(=O)c2ccc(C(F)F)c(S(C)(=O)=O)c2C)o1 [Example 7-3]
60: Herbicidal efficacy against ALOMY (Alopecurus myosuroides [11]; dosage 20 g/ha, Table M)
100%: herbicidal activity ABUTH (Abutilon theophrasti [1]; dosage 320 g/ha) | herbicidal activity ALOMY (Alopecurus myosuroides [2]; dosage 320 g/ha) | herbicidal activity AMARE (Amaranthus retroflexus [3]) | herbicidal activity AVEFA (Avena fatua [4]; dosage 320 g/ha) | herbicidal activity CYPES (Cyperus serotinus [5]; dosage 320 g/ha) | herbicidal activity MATIN (Matricaria inodora [6]; dosage 320 g/ha) | herbicidal activity SETVI (Setaria viridis [7]; dosage 320 g/ha) | Herbicidal activity STEME (Stellaria media [8]) | herbicidal activity VIOTR (Viola tricolor [9]; dosage 320 g/ha) | herbicidal activity ABUTH (Abutilon theophrasti [10]) | herbicidal activity ALOMY (Alopecurus myosuroides [11]) | herbicidal activity AVEFA (Avena fatua [13]) | herbicidal activity SETVI (Setaria viridis [15]) | Herbicidal activity STEME (Stellaria media [16]) | herbicidal activity VIOTR (Viola tricolor [17])
80: Herbicidal efficacy against LOLMU (LOLMU; dosage 80 g/ha)
70: Herbicidal efficacy against POLCO (Polygonum convolvulus; dosage 320 g/ha, Table L)
40: Herbicidal efficacy against POLCO (Polygonum convolvulus; dosage 80 g/ha, Table L)
90: Herbicidal efficacy against ALOMY (Alopecurus myosuroides [2]; dosage 80 g/ha, Table L) | Herbicidal efficacy against AVEFA (Avena fatua [4]; dosage 80 g/ha, Table L) | Herbicidal efficacy against AVEFA (Avena fatua [13]; dosage 20 g/ha, Table M) | Herbicidal efficacy against MATIN (Matricaria inodora [20]; dosage 20 g/ha) | Herbicidal efficacy against SETVI (Setaria viridis [15]; dosage 20 g/ha, Table M)
90%: herbicidal activity AMARE (Amaranthus retroflexus [12]) | Herbicidal activity PHBPU (Pharbitis purpureum) | Herbicidal activity ECHCG (ECHCG [18])
100: Herbicidal efficacy against ALOMY (Alopecurus myosuroides [2]; dosage 320 g/ha, Table L) | Herbicidal efficacy against AVEFA (Avena fatua [4]; dosage 320 g/ha, Table L) | Herbicidal efficacy against CYPES (Cyperus serotinus [5]; dosage 80 g/ha, Table L) | Herbicidal efficacy against CYPES (Cyperus serotinus [5]; dosage 320 g/ha, Table L) | Herbicidal efficacy against SETVI (Setaria viridis [7]; dosage 80 g/ha, Table L) | Herbicidal efficacy against SETVI (Setaria viridis [7]; dosage 320 g/ha, Table L) | Herbicidal efficacy against VIOTR (Viola tricolor [9]; dosage 80 g/ha, Table L) | Herbicidal efficacy against VIOTR (Viola tricolor [9]; dosage 320 g/ha, Table L) | Herbicidal efficacy against ALOMY (Alopecurus myosuroides [11]; dosage 80 g/ha, Table M) | Herbicidal efficacy against AVEFA (Avena fatua [13]; dosage 80 g/ha, Table M) | Herbicidal efficacy against MATIN (Matricaria inodora [20]; dosage 80 g/ha) | Herbicidal efficacy against SETVI (Setaria viridis [15]; dosage 80 g/ha, Table M) | Herbicidal efficacy against VERPE (Veronica persica; dosage 20 g/ha) | Herbicidal efficacy against VERPE (Veronica persica; dosage 80 g/ha) | Herbicidal efficacy against VIOTR (Viola tricolor [17]; dosage 20 g/ha, Table M) | Herbicidal efficacy against VIOTR (Viola tricolor [17]; dosage 80 g/ha, Table M) | Herbicidal efficacy against LOLMU (LOLMU; dosage 320 g/ha)
